Experimental data reported in US12552785B2, “Pyrazolo[1,5-α]pyridine derivative, preparation method therefor, and composition and use thereof” (SHENZHEN ZHONGGE BIOLOGICAL TECHNOLOGY CO., LTD., priority 2020, dated 2026).

Experiments:
VEGFR2 = VEGFR2 (Homo sapiens, UniProt P35968); experiment: HTRF method for testing the inhibitory activity of compounds against VEGFR2; type: biochemical; conditions: IC50 by nonlinear regression, read-out: VEGFR2 kinase activity
Experimental: (b) In Vitro Screening Experiment—HTRF Method for Testing the Inhibitory Activity of Compounds Against VEGFR2 Experimental Procedure: 1. […] The test compound (5 mM stock solution) was diluted 5 folds to 1 mM with 100% dimethyl sulfoxide; the compound was diluted into 10 concentrations at an equal ratio of 1:3 in a 384-well dilution plate. 3. […] 6. […] The reaction solution was centrifuged at 1000 g for 30 s, and then sealed, and incubated at room temperature for 40 min. 8. […] 10. […] 11. […] 12. IC50 was calculated with software GraphPad 6.0 by fitting inhibition values and logarithms of compound concentrations to a nonlinear regression (dose response−variable slope).

RET = RET (Homo sapiens, UniProt P07949); experiment: HTRF method for testing the inhibitory activity of compounds against RET; type: biochemical; conditions: IC50 by nonlinear regression, read-out: RET kinase activity
Experimental: (a) In Vitro Screening Experiment-HTRF Method for Testing the Inhibitory Activity of Compounds Against RET Experimental Procedure: 1. […] 2. The test compound (5 mM stock solution) was diluted 5 folds to 1 mM with 100% dimethyl sulfoxide; the compound was diluted into 10 concentrations at an equal ratio of 1:3 in a 384-well dilution plate. 3. 0.2 μL of the serially diluted compound was added to a 384-well plate using an Echo 550 pipetting system, 2 replicate wells for each concentration, and the final concentration of dimethyl sulfoxide was 0.5% (v/v). […] 6. […] The reaction solution was centrifuged at 1000 g for 30 s, and then sealed, and incubated at room temperature for 30 min. 8. […] 10. […] 11. […] IC50 was calculated with software GraphPad 6.0 by fitting inhibition values and logarithms of compound concentrations to a nonlinear regression (dose response−variable slope).

Ba/F3-KIF5B-RET cell = molecular target: T1, Ba/F3-KIF5B-RET cell (Homo sapiens, UniProt P07949); experiment: CellTiter-Glo luminescence assay for inhibitory activity against Ba/F3-KIF5B-RET cell; type: cell-based; conditions: Ba/F3-KIF5B-RET cells, 72 h
T1 construct: fused on or other part: P33176 (Kinesin-1 heavy chain)
Source text: (c) In Vitro Screening Experiment—CellTiter-Glo Luminescence Assay for Testing the Inhibitory Activity of Compounds Against Ba/F3-KIF5B-RET Cell Experimental Procedure: 1. The mammalian cell expression vector containing human KIF5B-RET cDNA was introduced into Ba/F3 cells using the Neon® transfection system method, and the surviving clones screened by puromycin were subjected to cell growth inhibitory function experiments and Western blotting to verify cell lines with stable and high expression of RET. 2. […] 3. The test compound (5 mM stock) was diluted 2.5 folds to 2 mM with 100% dimethyl sulfoxide; and the compound was diluted into 10 concentrations at an equal ratio of 1:3 in a 384-well dilution plate. 4. […] 6. […] 7. By fitting the data with XLFit 5.0 based on the parameters formula, the IC50 value was calculated as: Y=Bottom+(Top−Bottom)/(1+10^((Log IC50−X)*HillSlope)).

VEGFR2, sequence (P35968 20-1356, species assumed): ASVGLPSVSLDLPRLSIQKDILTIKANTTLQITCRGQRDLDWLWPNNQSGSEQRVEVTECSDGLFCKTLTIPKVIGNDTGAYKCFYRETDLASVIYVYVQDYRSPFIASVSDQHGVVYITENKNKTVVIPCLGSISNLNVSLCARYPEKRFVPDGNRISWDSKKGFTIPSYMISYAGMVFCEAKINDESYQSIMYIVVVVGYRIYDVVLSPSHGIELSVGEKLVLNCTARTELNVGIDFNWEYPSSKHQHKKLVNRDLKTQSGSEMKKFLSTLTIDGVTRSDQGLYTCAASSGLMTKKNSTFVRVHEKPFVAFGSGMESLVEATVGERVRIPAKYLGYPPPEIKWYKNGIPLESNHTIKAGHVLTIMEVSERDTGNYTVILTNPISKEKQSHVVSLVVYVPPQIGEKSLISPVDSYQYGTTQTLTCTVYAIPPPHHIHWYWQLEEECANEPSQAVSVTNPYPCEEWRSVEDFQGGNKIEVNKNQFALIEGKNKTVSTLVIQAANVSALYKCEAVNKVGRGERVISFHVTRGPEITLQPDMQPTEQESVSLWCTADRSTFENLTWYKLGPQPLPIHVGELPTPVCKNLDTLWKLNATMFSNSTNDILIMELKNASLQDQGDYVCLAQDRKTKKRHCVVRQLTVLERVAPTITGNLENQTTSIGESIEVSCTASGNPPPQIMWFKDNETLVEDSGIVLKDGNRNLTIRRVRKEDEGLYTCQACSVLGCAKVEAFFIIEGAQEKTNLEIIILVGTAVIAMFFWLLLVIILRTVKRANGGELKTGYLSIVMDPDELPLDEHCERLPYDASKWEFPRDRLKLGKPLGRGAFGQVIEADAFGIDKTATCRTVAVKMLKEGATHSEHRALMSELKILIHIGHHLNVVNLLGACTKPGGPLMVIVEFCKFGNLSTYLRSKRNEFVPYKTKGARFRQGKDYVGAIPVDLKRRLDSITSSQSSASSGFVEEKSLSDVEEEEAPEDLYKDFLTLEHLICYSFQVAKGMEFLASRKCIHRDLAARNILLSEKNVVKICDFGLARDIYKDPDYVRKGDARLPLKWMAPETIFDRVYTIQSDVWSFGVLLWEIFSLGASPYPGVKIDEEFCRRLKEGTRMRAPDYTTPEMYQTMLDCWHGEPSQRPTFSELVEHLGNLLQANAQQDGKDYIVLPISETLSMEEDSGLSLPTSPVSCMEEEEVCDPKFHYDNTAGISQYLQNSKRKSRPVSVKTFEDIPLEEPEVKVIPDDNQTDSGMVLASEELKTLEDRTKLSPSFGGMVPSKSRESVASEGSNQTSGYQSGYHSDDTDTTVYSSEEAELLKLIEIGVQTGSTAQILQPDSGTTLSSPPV
RET, sequence (P07949 29-1114): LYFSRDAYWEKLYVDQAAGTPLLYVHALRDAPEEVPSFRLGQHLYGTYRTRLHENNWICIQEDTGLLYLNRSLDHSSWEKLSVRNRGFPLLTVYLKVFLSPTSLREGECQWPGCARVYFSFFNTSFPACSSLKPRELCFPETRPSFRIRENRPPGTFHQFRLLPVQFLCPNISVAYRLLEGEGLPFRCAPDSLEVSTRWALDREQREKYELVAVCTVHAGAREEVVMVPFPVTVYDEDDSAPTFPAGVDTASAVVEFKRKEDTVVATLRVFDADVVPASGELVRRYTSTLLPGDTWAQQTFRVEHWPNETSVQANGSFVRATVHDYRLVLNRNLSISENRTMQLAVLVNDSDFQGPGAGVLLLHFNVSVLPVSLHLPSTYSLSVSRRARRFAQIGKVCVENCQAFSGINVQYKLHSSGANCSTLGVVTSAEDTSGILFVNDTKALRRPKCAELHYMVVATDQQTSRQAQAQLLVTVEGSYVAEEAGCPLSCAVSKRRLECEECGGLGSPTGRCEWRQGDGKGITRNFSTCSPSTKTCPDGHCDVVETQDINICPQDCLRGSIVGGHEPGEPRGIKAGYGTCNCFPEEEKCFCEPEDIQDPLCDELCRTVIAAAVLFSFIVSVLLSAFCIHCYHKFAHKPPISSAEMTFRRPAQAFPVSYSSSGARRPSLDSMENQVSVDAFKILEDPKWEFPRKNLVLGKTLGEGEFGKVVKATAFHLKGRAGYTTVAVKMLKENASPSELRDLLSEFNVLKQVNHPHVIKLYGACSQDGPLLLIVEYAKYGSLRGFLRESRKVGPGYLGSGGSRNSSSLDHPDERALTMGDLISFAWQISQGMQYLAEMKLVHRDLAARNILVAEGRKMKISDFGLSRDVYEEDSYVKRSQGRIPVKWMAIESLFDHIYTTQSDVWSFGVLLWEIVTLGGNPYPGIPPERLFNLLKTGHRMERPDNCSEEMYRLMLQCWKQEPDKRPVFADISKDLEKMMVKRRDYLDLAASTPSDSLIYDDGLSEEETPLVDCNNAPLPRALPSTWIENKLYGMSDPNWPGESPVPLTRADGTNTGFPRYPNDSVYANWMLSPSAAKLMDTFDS
T1 sequence (P07949 whole entry, stated change not applied, the tested form may be a part): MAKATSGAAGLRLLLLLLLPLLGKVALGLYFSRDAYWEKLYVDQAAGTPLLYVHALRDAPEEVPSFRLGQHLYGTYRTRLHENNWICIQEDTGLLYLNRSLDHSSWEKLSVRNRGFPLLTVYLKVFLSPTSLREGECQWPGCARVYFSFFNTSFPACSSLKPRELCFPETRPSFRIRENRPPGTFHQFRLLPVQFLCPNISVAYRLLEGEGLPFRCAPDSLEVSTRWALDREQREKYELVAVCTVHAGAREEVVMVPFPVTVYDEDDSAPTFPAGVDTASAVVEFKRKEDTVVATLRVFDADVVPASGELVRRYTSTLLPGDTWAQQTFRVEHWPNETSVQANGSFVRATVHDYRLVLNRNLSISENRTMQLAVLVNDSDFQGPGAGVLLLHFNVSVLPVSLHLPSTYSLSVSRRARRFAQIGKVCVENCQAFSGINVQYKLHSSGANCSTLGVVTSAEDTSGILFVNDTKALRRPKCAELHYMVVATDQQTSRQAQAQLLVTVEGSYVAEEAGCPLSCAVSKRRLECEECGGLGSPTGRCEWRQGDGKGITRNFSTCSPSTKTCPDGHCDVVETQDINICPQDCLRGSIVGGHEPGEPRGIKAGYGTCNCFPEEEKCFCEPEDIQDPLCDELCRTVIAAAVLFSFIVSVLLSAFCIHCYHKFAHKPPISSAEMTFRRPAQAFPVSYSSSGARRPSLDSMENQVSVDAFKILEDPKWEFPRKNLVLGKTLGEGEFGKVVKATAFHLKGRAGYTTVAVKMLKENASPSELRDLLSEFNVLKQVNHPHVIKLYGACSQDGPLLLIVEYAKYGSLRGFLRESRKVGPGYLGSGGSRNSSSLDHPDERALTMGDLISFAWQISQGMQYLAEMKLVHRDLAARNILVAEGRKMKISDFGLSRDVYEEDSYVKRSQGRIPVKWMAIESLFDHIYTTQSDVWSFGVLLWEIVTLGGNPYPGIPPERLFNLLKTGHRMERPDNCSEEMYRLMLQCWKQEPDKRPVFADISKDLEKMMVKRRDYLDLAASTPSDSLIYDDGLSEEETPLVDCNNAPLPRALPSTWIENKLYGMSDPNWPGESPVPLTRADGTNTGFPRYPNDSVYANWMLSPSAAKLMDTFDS

IC50 (VEGFR2) [nM]	IC50 (RET) [nM]	GI50 (Ba/F3-KIF5B-RET cell) [nM]	Structure (SMILES)
18	0.26	18.6	CC[C@@H](c1ccc(-n2cc(F)cn2)nc1)N(C)c1ccc(-c2cc(OCC(C)(C)O)cn3ncc(C#N)c23)cn1 [Compound 44, (S)-4-(6-((1-(6-(4-fluoro-1H-pyrazolyl)pyridin-3-yl)propyl)(methyl)amino)pyridin-3-yl)-6-(2-hydroxy-2-methylpropoxy)pyrazo[1,5-a]pyridine-3-carbonitrile]
175	0.47	15.1	CCOc1cc(-c2ccc(N(C)[C@@H](C)c3ccc(-n4cc(F)cn4)nc3)nc2)c2c(C#N)cnn2c1 [Compound 30, (S)-4-(6-((1-(6-(4-fluoro-1H-pyrazol-1-yl)pyridin-3-yl)ethyl)(methyl)amino)pyridine-3-yl)-6-ethoxypyrazolo[1,5-a]pyridine-3-carbonitrile]
47	2.76	19.9	CC(O)COc1cc(-c2ccc(N(C)[C@@H](C)c3ccc(-n4cc(F)cn4)nc3)nc2)c2c(C#N)cnn2c1 (stereo partly drawn) [Compound 36, (S)-4-(6-((1-(6-(4-fluoro-1H-pyrazol-1-yl)pyridin-3-yl)ethyl)(methyl)amino)pyridine-3-yl)-6-(2-hydroxypropoxy)pyrazolo[1,5-a]pyridine-3-carbonitrile]
15.6	1.63	35.5	C[C@H](Nc1ccc(-c2cc(OCC(C)(C)O)cn3ncc(C#N)c23)cn1)c1ccc(-n2cc(F)cn2)cc1 [Compound 16, (S)-4-(6-((1-(4-(4-fluoro-1H-pyrazol-1-yl)phenyl)ethyl)amino)pyridin-3-yl)-6-(2-hydroxy-2-methylpropoxy)pyrazolo[1,5-a]pyridine-3-carbonitrile]
> 5000	5.45	236	C[C@@H](c1ccc(-n2cc(F)cn2)nc1)N(C)c1ccc(-c2cc(N3CCCCC3)cn3ncc(C#N)c23)cn1 [Compound 47, (S)-4-(6-((1-(6-(4-fluoro-1H-pyrazol-1-yl)pyridin-3-yl)ethyl)(methyl)amino)pyridine-3-yl)-6-(piperidin-1-yl)pyrazolo[1,5-a]pyridine-3-carbonitrile]
245	2.05	35	COc1ccc([C@H](C)N(C)c2ccc(-c3cc(OCC(C)(C)O)cn4ncc(C#N)c34)cn2)cn1 [Compound 43, (S)-6-(2-hydroxy-2-methylpropoxy)-4-(6-((1-(6-methoxypyridin-3-yl)ethyl)(methyl)amino)pyridin-3-yl)pyrazolo[1,5-a]pyridine-3-carbonitrile]
≥ 5440	4.32	142	C[C@@H](c1ccc(-n2cc(F)cn2)nc1)N(C)c1ccc(-c2cc(N3CCC(F)(F)CC3)cn3ncc(C#N)c23)cn1 [Compound 48]
72.1	7.14	203	CC(C)(O)COc1cc(-c2ccc(NCc3ccc(-n4ccnc4)nc3)nc2)c2c(C#N)cnn2c1 [Compound 7]
59.2	1.3	40.7	CCN(Cc1ccc(-n2cc(F)cn2)nc1)c1ccc(-c2cc(OCC(C)(C)O)cn3ncc(C#N)c23)cn1 [Compound 57]
> 5000	4.23	224	C[C@@H](c1ccc(-n2cc(F)cn2)nc1)N(C)c1ccc(-c2cc(OCC#N)cn3ncc(C#N)c23)cn1 [Compound 32, (S)-4-(6-((1-(6-(4-fluoro-1H-pyrazol-1-yl)pyridin-3-yl)ethyl)(methyl)amino)pyridine-3-yl)-6-cyanomethoxypyrazolo[1,5-a]pyridine-3-carbonitrile]
199	18	–	CCN(CC)c1ccc([C@H](C)N(C)c2ccc(-c3cc(OCC(C)(C)O)cn4ncc(C#N)c34)cn2)cn1 [Compound 42, (S)-4-(6-((1-(6-(diethylamino)pyridin-3-yl)ethyl)(methyl)amino)pyridin-3-yl)-6-(2-hydroxy-2-methylpropoxy)pyrazolo[1,5-a]pyridine-3-carbonitrile]
780	2.66	–	C#Cc1cc(-c2ccc(N(C)[C@@H](C)c3ccc(-n4cc(F)cn4)nc3)nc2)c2c(C#N)cnn2c1 [Compound 65]
49.7	0.34	–	C[C@@H](c1ccc(-n2cc(F)cn2)nc1)N(C)c1ccc(-c2cc(OCCF)cn3ncc(C#N)c23)cn1 [Compound 41, (S)-4-(6-((1-(6-(4-fluoro-1H-pyrazol-1-yl)pyridin-3-yl)ethyl)(methyl)amino)pyridine-3-yl)-6-(2-fluoroethoxy)pyrazolo[1,5-a]pyridine-3-carbonitrile]
5.62	0.29	–	CNc1cc(-c2ccc(N(C)[C@@H](C)c3ccc(-n4cc(F)cn4)nc3)nc2)c2c(C#N)cnn2c1 [Compound 52, (S)-4-(6-((1-(6-(4-fluoro-1H-pyrazol-1-yl)pyridin-3-yl)ethyl)(methyl)amino)pyridine-3-yl)-6-(methylamino)pyrazolo[1,5-a]pyridine-3-carbonitrile]
21.1	0.3	–	COCCOc1cc(-c2ccc(N(C)[C@@H](C)c3ccc(-n4cc(F)cn4)nc3)nc2)c2c(C#N)cnn2c1 [Compound 54, (S)-4-(6-((1-(6-(4-fluoro-1H-pyrazol-1-yl)pyridin-3-yl)ethyl)(methyl)amino)pyridine-3-yl)-6-(2-methoxyethoxy)pyrazolo[1,5-a]pyridine-3-carbonitrile]
64.3	3.49	–	C[C@@H](c1ccc(-n2cc(F)cn2)nc1)N(C)c1ccc(-c2cc(N3CCCC3)cn3ncc(C#N)c23)cn1 [Compound 59]
> 5000	269	–	C=CCOc1cc(-c2ccc(N(C)[C@@H](C)c3ccc(-n4cc(F)cn4)nc3)nc2)c2c(C#N)cnn2c1 [Compound 31, (S)-4-(6-((1-(6-(4-fluoro-1H-pyrazol-1-yl)pyridin-3-yl)ethyl)(methyl)amino)pyridine-3-yl)-6-allyloxypyrazolo[1,5-a]pyridine-3-carbonitrile]
270	–	18.6	Cc1cnn(-c2ccc([C@H](C)N(C)c3ccc(-c4cc(OCC(C)(C)O)cn5ncc(C#N)c45)cn3)cn2)c1 [Compound 37]
48.3	0.83	–	COc1cc(-c2ccc(N(C)[C@@H](C)c3ccc(-n4cc(F)cn4)nc3)nc2)c2c(C#N)cnn2c1 [Compound 40, (S)-4-(6-((1-(6-(4-fluoro-1H-pyrazol-1-yl)pyridin-3-yl)ethyl)(methyl)amino)pyridine-3-yl)-6-methoxypyrazolo[1,5-a]pyridine-3-carbonitrile]
361	4.56	–	Cc1ccc([C@H](C)N(C)c2ccc(-c3cc(OCC(C)(C)O)cn4ncc(C#N)c34)cn2)cn1 [Compound 63]
241	4.35	–	CCc1cc(-c2ccc(N(C)[C@@H](C)c3ccc(-n4cc(F)cn4)nc3)nc2)c2c(C#N)cnn2c1 [Compound 66]
1980	–	39.3	C[C@@H](c1ccc(-n2cc(Cl)cn2)nc1)N(C)c1ccc(-c2cc(OCC(C)(C)O)cn3ncc(C#N)c23)cn1 [Compound 45, (S)-4-(6-((1-(6-(4-chloro-1H-pyrazol-1-yl)pyridin-3-yl)ethyl)(methyl)amino)pyridine-3-yl)-6-(2-hydroxy-2-methylpropoxy)pyrazo[1,5-a]pyridine-3-carbonitrile]
